Measured values from ChEMBL document CHEMBL3045879, “Isolation of long-chain esters from the rhizome of Polygonatum verticillatum by potent tyrosinase inhibition” (Med Chem Res, 2013).

Biological target: T1, Tyrosinase (Agaricus bisporus, UniProt O42713)
T1 sequence (O42713 whole entry): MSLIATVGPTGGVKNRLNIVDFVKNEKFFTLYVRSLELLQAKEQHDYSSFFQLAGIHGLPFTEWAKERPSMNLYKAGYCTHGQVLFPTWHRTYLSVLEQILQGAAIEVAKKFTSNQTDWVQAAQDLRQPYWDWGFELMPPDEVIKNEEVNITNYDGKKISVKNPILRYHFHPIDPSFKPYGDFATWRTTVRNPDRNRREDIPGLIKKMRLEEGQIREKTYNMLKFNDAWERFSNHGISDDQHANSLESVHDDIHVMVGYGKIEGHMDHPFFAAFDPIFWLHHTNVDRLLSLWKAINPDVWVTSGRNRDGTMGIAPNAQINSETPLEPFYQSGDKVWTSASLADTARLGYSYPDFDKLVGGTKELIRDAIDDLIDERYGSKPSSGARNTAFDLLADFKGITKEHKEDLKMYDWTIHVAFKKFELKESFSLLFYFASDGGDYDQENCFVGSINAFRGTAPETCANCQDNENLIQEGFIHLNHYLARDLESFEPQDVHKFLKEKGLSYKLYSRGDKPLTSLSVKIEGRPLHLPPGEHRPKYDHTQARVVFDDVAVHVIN
Assay: Inhibition of Agaricus bisporus (mushroom) tyrosinase assessed as decrease in dopachrome formation using L-DOPA as substrate preincubated with enzyme for 10 min prior to substrate addition measured for 10 min by microplate reader analysis

SMILES | IC50 [µM]
CCCCCCCCCCCCCCC(=O)OCC(O)CO (configuration not stated) [2',3'-DIHYDROXY PROPYL PENTADECANOATE] | 9.45
CCCCCCCCCCCCCCC(=O)OCCC [PROPYL PENTADECANOATE] | 22.3
